Measured values as given in PubChem BioAssay AID330 (DTP/NCI, 2004).
Several values for one entry are separate records, joined by “and”; a condition that tells them apart may be missing. Identical values can stand only once. Inconclusive results and toxic doses are left out. Rule for the calls: active = survival T/C of 150% or more; inactive = T/C below 125% in these data. Square brackets hold non-standard residues; d marks the D form. Peptide text beside a SMILES is read from it. Ac5c = NC1(C(=O)O)CCCC1

Tested on: P388 leukemia ip, CD2F1 mice, survival T/C
Experiment: NCI In Vivo Anticancer Drug Screen. Data for tumor model P388 Leukemia (intraperitoneal) in CD2F1 (CDF1) mice
Settings: endpoint: median survival time, higher = longer survival
How it was run: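 Mice carrying the transplanted tumor received test compound or vehicle. Survival was recorded in each group, and the value is the treated-group measurement divided by that of the vehicle-treated control group.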

[1] = dose: 50.0 mg/kg/injection, schedule: Q01DX005 (ip), vehicle: saline
[2] = dose: 100.0 mg/kg/injection, schedule: Q01DX005 (ip), vehicle: saline
[3] = dose: 200.0 mg/kg/injection, schedule: Q01DX005 (ip), vehicle: saline
[4] = dose: 50.0 mg/kg/injection, schedule: Q01DX009 (ip), vehicle: saline
[5] = dose: 100.0 mg/kg/injection, schedule: Q01DX009 (ip), vehicle: saline
[6] = dose: 200.0 mg/kg/injection, schedule: Q01DX009 (ip), vehicle: saline
[7] = dose: 50.0 mg/kg/injection, schedule: Q01DX005 (ip), vehicle: Klucel (hydroxypropylcellulose) (HPC)
[8] = dose: 100.0 mg/kg/injection, schedule: Q01DX005 (ip), vehicle: Klucel (hydroxypropylcellulose) (HPC)
[9] = dose: 12.5 mg/kg/injection, schedule: Q01DX009 (ip), vehicle: other
[10] = dose: 60.0 mg/kg/injection, schedule: Q01DX005 (ip), vehicle: saline with Tween-80
[11] = dose: 120.0 mg/kg/injection, schedule: Q01DX005 (ip), vehicle: saline with Tween-80
[12] = dose: 240.0 mg/kg/injection, schedule: Q01DX005 (ip), vehicle: saline with Tween-80

Measured: T/C

C[S+](C)c1ccccc1NC(C)(C)C
inactive: dose: 6.25 mg/kg/injection, schedule: Q01DX009 (ip), vehicle: saline + alcohol 99 % of control | dose: 12.5 mg/kg/injection, schedule: Q01DX009 (ip), vehicle: saline + alcohol 100 % of control | dose: 25.0 mg/kg/injection, schedule: Q01DX009 (ip), vehicle: saline + alcohol 96 % of control | dose: 25.0 mg/kg/injection, schedule: Q01DX009 (ip), vehicle: saline 101 % of control

N#CC1(OC2OC(CO)C(O)C(O)C2O)C=CCC1 (stereo not given)
inactive: dose: 25.0 mg/kg/injection, schedule: Q01DX005 (ip), vehicle: saline 101 % of control | [1] 103 % of control | [2] 98 % of control | [3] 96 % of control

CCCCCC(=O)OC(C)Cl (stereo not given)
inactive: [4] 99 % of control | [5] 97 % of control | [6] 106 % of control

N#C/C(=N\Nc1cccc(C(F)(F)F)c1)C(N)=O
inactive: [7] 103 % of control | [8] 115 % of control

Cc1ccccc1N=Nc1c(O)n(-c2ccccc2Cl)c(=S)n(-c2ccccc2)c1=O
inactive: dose: 25.0 mg/kg/injection, schedule: Q01DX001 (ip), vehicle: Klucel (hydroxypropylcellulose) (HPC) 102 % of control | dose: 50.0 mg/kg/injection, schedule: Q01DX001 (ip), vehicle: Klucel (hydroxypropylcellulose) (HPC) 104 % of control | dose: 100.0 mg/kg/injection, schedule: Q01DX001 (ip), vehicle: Klucel (hydroxypropylcellulose) (HPC) 101 % of control

ClCC(OCc1ccccc1)OCc1ccccc1
inactive: [9] 114 % of control | dose: 25.0 mg/kg/injection, schedule: Q01DX009 (ip), vehicle: other 100 % of control | dose: 50.0 mg/kg/injection, schedule: Q01DX009 (ip), vehicle: other 100 % of control | dose: 100.0 mg/kg/injection, schedule: Q01DX009 (ip), vehicle: other 111 % of control | dose: 200.0 mg/kg/injection, schedule: Q01DX009 (ip), vehicle: other 119 % of control

CCN(CCCN(C)C)c1ccc(/C=C/c2ccnc3ccccc23)cc1
inactive: [5] 108 % of control

CCOC(=O)c1ccc(N=C/C(Cl)=C(/Cl)C(=O)O)cc1
inactive: dose: 3.12 mg/kg/injection, schedule: Q01DX009 (ip), vehicle: other 102 % of control | dose: 6.25 mg/kg/injection, schedule: Q01DX009 (ip), vehicle: other 92 % of control | dose: 12.5 mg/kg/injection, schedule: Q01DX009 (ip), vehicle: Klucel (hydroxypropylcellulose) (HPC) 92 % of control | [9] 89 % of control

CCOC(=O)N1CCN(CC(O)Cn2c(=O)c3c(nc(N4CCN(C(=O)OCC)CC4)n3C)n(C)c2=O)CC1 (stereo not given)
inactive: dose: 50.0 mg/kg/injection, schedule: Q01DX009 (ip), vehicle: Klucel (hydroxypropylcellulose) (HPC) 100 % of control | dose: 100.0 mg/kg/injection, schedule: Q01DX009 (ip), vehicle: Klucel (hydroxypropylcellulose) (HPC) 101 % of control | dose: 200.0 mg/kg/injection, schedule: Q01DX009 (ip), vehicle: Klucel (hydroxypropylcellulose) (HPC) 99 % of control

CN(NC(=O)CC(=O)NN(C)C(=S)c1ccccc1)C(=S)c1ccccc1
inactive: dose: 12.5 mg/kg/injection, schedule: Q01DX009 (ip), vehicle: gum acacia 97 % of control | dose: 25.0 mg/kg/injection, schedule: Q01DX009 (ip), vehicle: gum acacia 115 % of control | dose: 50.0 mg/kg/injection, schedule: Q01DX009 (ip), vehicle: gum acacia 104 % of control

C/C(=N\NC(=S)N1CCN(c2cnccn2)CC1)c1ccccn1
inactive: dose: 3.75 mg/kg/injection, schedule: Q01DX005 (ip), vehicle: saline with Tween-80 120 % of control | dose: 7.5 mg/kg/injection, schedule: Q01DX005 (ip), vehicle: saline with Tween-80 120 % of control and 122 % of control

CC(C)SC(=S)Nc1ccc(Cl)c([N+](=O)[O-])c1
inactive: [4] 99 % of control | [5] 93 % of control | [6] 103 % of control

COc1ccc2[nH]c3c(C)c4cc[n+](CCCCCCCC[n+]5ccc6c(C)c7[nH]c8ccc(OC)cc8c7c(C)c6c5)cc4c(C)c3c2c1
inactive: dose: 0.78 mg/kg/injection, schedule: Q04DX003 (ip), vehicle: other 117 % of control | dose: 25.0 mg/kg/injection, schedule: Q04DX003 (ip), vehicle: other 122 % of control | dose: 50.0 mg/kg/injection, schedule: Q04DX003 (ip), vehicle: other 119 % of control

Cc1c([N+](=O)[O-])oc2cc3c(cc12)CCCC3
inactive: [10] 91 % of control | [11] 93 % of control | [12] 94 % of control

COc1ccc2c(c1)nc(-c1ccccn1)n2CCc1ccccn1
inactive: dose: 50.0 mg/kg/injection, schedule: Q04DX002 (ip), vehicle: Klucel (hydroxypropylcellulose) (HPC) 113 % of control | dose: 100.0 mg/kg/injection, schedule: Q04DX002 (ip), vehicle: Klucel (hydroxypropylcellulose) (HPC) 101 % of control | dose: 200.0 mg/kg/injection, schedule: Q04DX002 (ip), vehicle: Klucel (hydroxypropylcellulose) (HPC) 104 % of control | dose: 400.0 mg/kg/injection, schedule: Q04DX002 (ip), vehicle: Klucel (hydroxypropylcellulose) (HPC) 101 % of control

c1ccc2c(SCCCCCCCCSc3c4ccccc4nc4ccccc34)c3ccccc3nc2c1
inactive: dose: 60.0 mg/kg/injection, schedule: Q01DX005 (ip), vehicle: Klucel (hydroxypropylcellulose) (HPC) 101 % of control | dose: 120.0 mg/kg/injection, schedule: Q01DX005 (ip), vehicle: Klucel (hydroxypropylcellulose) (HPC) 86 % of control | dose: 240.0 mg/kg/injection, schedule: Q01DX005 (ip), vehicle: Klucel (hydroxypropylcellulose) (HPC) 86 % of control

COc1ccc2c(C)cc(N/N=C(\C)c3cn(C)n(-c4ccccc4)c3=O)nc2c1
inactive: dose: 12.5 mg/kg/injection, schedule: Q01DX005 (ip), vehicle: Klucel (hydroxypropylcellulose) (HPC) 98 % of control | dose: 25.0 mg/kg/injection, schedule: Q01DX005 (ip), vehicle: Klucel (hydroxypropylcellulose) (HPC) 95 % of control | [7] 101 % of control and 93 % of control | [8] 110 % of control

CCN(CC)c1ccc(/C=N\Nc2ccc([N+](=O)[O-])cn2)cc1
inactive: dose: 50.0 mg/kg/injection, schedule: Q01DX005 (ip), vehicle: saline with Tween-80 93 % of control | dose: 100.0 mg/kg/injection, schedule: Q01DX005 (ip), vehicle: saline with Tween-80 90 % of control | dose: 200.0 mg/kg/injection, schedule: Q01DX005 (ip), vehicle: saline with Tween-80 87 % of control

CC(=O)Nc1ccccc1C(=O)C(=O)Nc1ccccc1C(=O)NN
inactive: [10] 106 % of control | [11] 89 % of control | [12] 87 % of control

NC1(C(=O)NCC(=O)O)CCCC1 (H-[Ac5c]-Gly-OH)
inactive: dose: 50.0 mg/kg/injection, schedule: Q04DX003 (ip), vehicle: Klucel (hydroxypropylcellulose) (HPC) 99 % of control | dose: 100.0 mg/kg/injection, schedule: Q04DX003 (ip), vehicle: Klucel (hydroxypropylcellulose) (HPC) 99 % of control | dose: 200.0 mg/kg/injection, schedule: Q04DX003 (ip), vehicle: Klucel (hydroxypropylcellulose) (HPC) 97 % of control | dose: 400.0 mg/kg/injection, schedule: Q04DX003 (ip), vehicle: Klucel (hydroxypropylcellulose) (HPC) 112 % of control

COc1ccc(NC(=O)C(c2ccccc2)c2ccccc2)cc1
inactive: dose: 100.0 mg/kg/injection, schedule: Q04DX003 (ip), vehicle: saline with Tween-80 90 % of control | dose: 200.0 mg/kg/injection, schedule: Q04DX003 (ip), vehicle: saline with Tween-80 95 % of control | dose: 400.0 mg/kg/injection, schedule: Q04DX003 (ip), vehicle: saline with Tween-80 100 % of control

CCN(CC)c1ccc(NC(c2ccccc2)C(O)c2ccccc2)cc1 (stereo not given)
inactive: [7] 96 % of control | [8] 104 % of control

O=C(O)C1=CC(c2ccccc2O)=NCCN1
inactive: dose: 15.0 mg/kg/injection, schedule: Q01DX005 (ip), vehicle: saline with Tween-80 97 % of control and 98 % of control | dose: 30.0 mg/kg/injection, schedule: Q01DX005 (ip), vehicle: saline with Tween-80 102 % of control and 105 % of control | [10] 114 % of control and 97 % of control | [11] 103 % of control and 107 % of control

NC(=O)c1ccccc1NC(=O)c1ccccc1C(=O)O
inactive: dose: 50.0 mg/kg/injection, schedule: Q01DX009 (ip), vehicle: saline with Tween-80 100 % of control and 101 % of control | dose: 100.0 mg/kg/injection, schedule: Q01DX009 (ip), vehicle: saline with Tween-80 99 % of control and 103 % of control | dose: 200.0 mg/kg/injection, schedule: Q01DX009 (ip), vehicle: saline with Tween-80 101 % of control and 103 % of control | dose: 400.0 mg/kg/injection, schedule: Q01DX009 (ip), vehicle: saline with Tween-80 100 % of control and 101 % of control

CCOCCN(CCOCC)c1ncnc2nc[nH]c12
inactive: [1] 102 % of control | [2] 102 % of control | [3] 98 % of control
